Test results from publication PMC3499629 (Journal of medicinal chemistry, 2012).
“Also recorded” adds a separate entry of the source.

Target: Gag' (GST-Gag) (Human immunodeficiency virus type 1 group M subtype B, UniProt P12493)
Format: binding, HIV-1
Details: DSF validation

C=C(C)[C@@H]1CC[C@]2(C(=O)O)CC[C@]3(C)[C@H](CC[C@@H]4[C@@]5(C)CC[C@H](OC(=O)CC(C)(C)C(=O)O)C(C)(C)[C@@H]5CC[C@]43C)[C@@H]12 [Bevirimat]
thermal stability (Tm) of Gag' in complex: increased the thermal stability; also recorded: higher melting temperature
